# From ChEMBL document CHEMBL5550142, “From lab to nature: Recent advancements in the journey of gastroprotective agents from medicinal chemistry to phytotherapy” (Eur J Med Chem, 2024)
# pIC50: −log10 of the molar value.
# Species: Rattus norvegicus
# Test: Anti-ulcer activity in stress-induced Sprague-Dawley rat […] model assessed as reduction in ulcer fomation
# Type: functional
# Design: Activity: concentration or dose not given beside the values
# Conditions: not given
row,Structure (SMILES),Activity [%]
1,CC(C)Cc1ccc(C(C)C(=O)NS(=O)(=O)c2ccc(N)cc2)cc1 (stereo unspecified),8
2,COC1Oc2ccccc2-c2sc(C=O)cc21 (stereo unspecified),7.3
3,CCCc1cc([S+]([O-])c2nc3ccccc3[nH]2)nc(C)n1 (stereo unspecified),74.03
4,CC(C)Cc1ccc(C(C)C(=O)O)cc1 (stereo unspecified) [IBUPROFEN],35
5,CCCc1cc([S+]([O-])c2nc3cc(C)ccc3[nH]2)nc(C)n1 (stereo unspecified),72.87
6,CCCc1cc([S+]([O-])c2nc3cc([N+](=O)[O-])ccc3[nH]2)nc(C)n1 (stereo unspecified),75.15

# Same assay, conditions: Rattus norvegicus, Sprague-Dawley
row,Structure (SMILES),ED50 [mg/kg]
1,Cc1c(OCC(F)(F)C(F)(F)F)ccnc1C[S+]([O-])c1nc2ccccc2[nH]1 (stereo unspecified),5.1
2,[O-][S+](Cc1cc(OCC(F)(F)F)ccn1)c1nc2ccccc2[nH]1 (stereo unspecified),2
3,Cc1c(OCC(F)(F)C(F)F)ccnc1C[S+]([O-])c1nc2ccccc2[nH]1 (stereo unspecified),1.2
4,Cc1c(OCC(F)(F)F)ccnc1C[S+]([O-])c1nc2ccccc2[nH]1 (stereo unspecified) [LANSOPRAZOLE],2.4

# System: Helicobacter pylori
# Test: Antibacterial activity against Helicobacter pylori ATCC 43504 assessed as minimum bactericidal concentration incubated for 24 hrs by broth micro-dilution method
# Type: functional
# Conditions: not given
row,Structure (SMILES),MBC [µg/mL]
1,Cc1c(CSc2nc3ccccc3[nH]2)cccc1SCCN1CCOCC1,1
2,Cc1c(CSc2nc3ccccc3[nH]2)cccc1SCCn1c([N+](=O)[O-])cnc1C,2
3,Cc1c(CSc2nc3ccccc3[nH]2)cccc1SCCn1cncn1,4
4,COCCOCCOCCSc1cccc(CSc2nc3ccccc3[nH]2)c1C,0.5
5,COCCOCCOCCOCCOCCSc1cccc(CSc2nc3ccccc3[nH]2)c1C,0.5

# System: Helicobacter pylori
# Test: Antibacterial activity against Helicobacter pylori assessed as inhibition of bacterial growth by broth micro-dilution assay
# Type: functional
# Conditions: not given
row,Structure (SMILES),MIC90 [µg/mL]
1,Cc1c(CSc2nc3ccccc3[nH]2)cccc1SCCOC(=O)Nc1ccccc1,> 64

# System: not listed separately
# Test: Cmax in C57BL/6 mouse administered via oral gavage by LC-MS/MS analysis
# Type: ADME
# Conditions: in vivo
row,Structure (SMILES),Cmax [ng/mL]
1,Cc1c(CSc2nc3ccccc3[nH]2)cccc1SCCOC(=O)Nc1ccccc1,900

# Molecular target: not listed separately
# Test: Inhibition of Hydrogen potassium ATPase (unknown origin)
# Design: species or system Homo sapiens
# Conditions: not given
row,Structure (SMILES),IC50 [µg/mL]
1,Cc1ccc(-c2csc(NC(=O)/C=C/c3ccc(O)c(O)c3)n2)cc1,35.35
2,COc1ccc2[nH]c([S+]([O-])Cc3ncc(C)c(OC)c3C)nc2c1 (stereo unspecified) [OMEPRAZOLE],37.91

# Same assay, conditions: read-out: IC50
row,Structure (SMILES),pIC50
1,Brc1ccc(C2CC(c3ccco3)=Nc3ccccc3S2)cc1 (stereo unspecified),5.68
2,CCc1ccc(-c2nc3c(C(=O)NCc4cccc(CN)c4)cccn3c2NCc2ccccc2)cc1,5.22
3,Cc1ccccc1-c1nc2c(C(=O)NCc3cccc(CN)c3)cccn2c1NCc1ccccc1,5.21
4,COc1ccc(C2CC(c3ccco3)=Nc3ccccc3S2)cc1 (stereo unspecified),5.70

# Molecular target: Urease subunit alpha/Urease subunit beta (Helicobacter pylori (strain ATCC 700392 / 26695) (Campylobacterpylori), UniProt P69996)
# Sequence (P69996 whole entry): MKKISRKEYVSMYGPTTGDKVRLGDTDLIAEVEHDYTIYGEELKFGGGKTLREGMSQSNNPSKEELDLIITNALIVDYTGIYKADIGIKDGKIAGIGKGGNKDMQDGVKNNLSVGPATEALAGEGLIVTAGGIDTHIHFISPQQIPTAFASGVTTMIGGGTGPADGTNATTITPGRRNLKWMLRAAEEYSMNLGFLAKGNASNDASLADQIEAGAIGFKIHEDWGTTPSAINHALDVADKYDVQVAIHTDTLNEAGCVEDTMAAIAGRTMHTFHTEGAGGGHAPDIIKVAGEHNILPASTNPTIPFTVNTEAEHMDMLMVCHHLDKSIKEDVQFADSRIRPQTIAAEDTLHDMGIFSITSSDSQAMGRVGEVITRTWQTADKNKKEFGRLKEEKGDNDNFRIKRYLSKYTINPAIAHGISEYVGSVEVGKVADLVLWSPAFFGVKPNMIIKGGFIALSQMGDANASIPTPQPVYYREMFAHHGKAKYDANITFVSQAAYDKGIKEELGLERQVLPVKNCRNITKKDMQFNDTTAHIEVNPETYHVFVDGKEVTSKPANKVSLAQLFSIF
# Sequence (P14916 whole entry, further chain): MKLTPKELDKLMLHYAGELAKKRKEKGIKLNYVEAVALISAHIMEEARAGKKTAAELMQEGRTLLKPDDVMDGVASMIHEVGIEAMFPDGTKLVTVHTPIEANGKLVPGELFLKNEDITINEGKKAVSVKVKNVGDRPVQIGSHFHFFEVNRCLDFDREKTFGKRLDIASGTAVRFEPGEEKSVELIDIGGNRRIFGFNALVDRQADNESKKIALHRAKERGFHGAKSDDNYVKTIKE
# Test: Inhibition of Helicobacter pylori urease
# Type: protein-complex assay
# Conditions: not given
row,Structure (SMILES),pIC50
1,O=C(Cc1c[nH]c2ccccc12)N/N=C/c1ccc(O)cc1O,5.92
2,O=C(Cc1c[nH]c2ccccc12)N/N=C/c1cccc(O)c1O,6.05
3,O=C(Cc1c[nH]c2ccccc12)N/N=C/c1ccc(O)c(O)c1,6.22

# System: not listed separately
# Test: Inhibition of urease (unknown origin)
# Design: species or system Homo sapiens
# Conditions: not given
row,Structure (SMILES),pIC50
1,COc1ccc(C(=O)N/N=C/c2cc(O)ccc2O)cc1OC,4.72
2,COc1ccc(C(=O)N/N=C/c2cc(O)cc(O)c2)cc1OC,5.08
3,COc1ccc(C(=O)N/N=C/c2ccc(O)c(O)c2)cc1OC,4.74
4,COc1ccc(C(=O)N/N=C/c2cc(O)c(O)c(O)c2)cc1OC,4.90
5,COC(=O)c1ccc(/C=N/NC(=O)Cc2c[nH]c3ccccc23)cc1,5.41
6,CC(C)=CCOc1c2ccoc2cc2oc(=O)ccc12 [ISOIMPERATORIN],4.44

# System: Rattus norvegicus
# Test: Protection against aspirin-induced Sprague-Dawley rat model assessed as reduction in gastric glandular lesion at 20 mg/kg, po administered for 30 mins once a day relative to control
# Type: functional
# Design: scale not given: the % may be the effect or the level left
# Conditions: 0.5 h
row,Structure (SMILES),Activity [%]
1,CC(CC1OCCc2ccccc21)NCCc1ccccc1 (stereo unspecified),71.3
2,CN/C(=N\CCSCc1nc[nH]c1C)NC#N [CIMETIDINE],51.6
3,CC(CC1CCCc2ccccc21)NCC(C)c1ccccc1 (stereo unspecified),71.3
4,CC(CC1OCCc2ccccc21)NCC(C)c1ccccc1 (stereo unspecified),71.3
5,CC(C)NC(C)CC1OCCc2ccccc21 (stereo unspecified),61

# System: Rattus norvegicus
# Test: Gastric ulcerogenic activity in Albino wistar rat assessed as reduction in pyloric lesion at 250 mg/kg, po relative to control
# Type: functional
# Design: scale not given: the % may be the effect or the level left
# Conditions: not given
row,Structure (SMILES),Activity [%]
1,N#Cc1c(NC(=O)c2c(-c3ccccc3)cnn(-c3ccc(Cl)cc3)c2=N)sc2sc(-c3cc4ccccc4oc3=O)nc12,94
2,O=c1oc2ccccc2cc1-c1nc2c(s1)sc1nc(=S)n(-c3ccccc3)c(O)c12,78
3,CCOC(=O)/C(C(=O)Nc1sc2sc(-c3cc4ccccc4oc3=O)nc2c1C#N)=C(/C)c1ccccc1,48
4,N#Cc1c(N)sc2sc(-c3cc4ccccc4oc3=O)nc12,64
5,COc1ccc(-n2ncc(-c3ccccc3)c(C(=O)Nc3sc4sc(-c5cc6ccccc6oc5=O)nc4c3C#N)c2=N)cc1,93
6,N#C/C(C(=O)Nc1sc2sc(-c3cc4ccccc4oc3=O)nc2c1C#N)=C(\C=N\Nc1ccccc1)c1ccccc1,66
7,N#CC1=C(N)Nc2nc(-c3cc4ccccc4oc3=O)sc2C1c1ccccc1 (stereo unspecified),82
8,N#Cc1c(O)nc2sc3sc(-c4cc5ccccc5oc4=O)nc3c2c1O,70

# System: Mus musculus
# Test: Anti-inflammatory activity against carrageenan-induced hind paw edema Swiss albino mouse model assessed as reduction in paw thickness at 10 mg/kg, po relative to control
# Type: functional
# Design: scale not given: the % may be the effect or the level left
# Conditions: not given
row,Structure (SMILES),Activity [%]
1,CCOC1=C(Sc2nnc(-c3c([C@H]4CC[C@H]5[C@@H]6CC=C7C[C@H](O)CC[C@]7(C)[C@H]6CC[C@]45C)csc3N)n2-c2ccccc2)C(c2ccccc2)C(C#N)=C(N)N1 (stereo partly specified),0.18
2,CCOC(=O)/C(=N/Nc1ccccc1)Sc1nnc(-c2c([C@H]3CC[C@H]4[C@@H]5CC=C6C[C@H](O)CC[C@]6(C)[C@H]5CC[C@]34C)csc2N)n1-c1ccccc1,0.96
3,CC(=O)/C(=N/Nc1ccccc1)Sc1nnc(-c2c([C@H]3CC[C@H]4[C@@H]5CC=C6C[C@H](O)CC[C@]6(C)[C@H]5CC[C@]34C)csc2N)n1-c1ccccc1,1.77

# System: Mus musculus
# Test: Gastric ulcerogenic activity in Swiss albino mouse model assessed as inhibition of gastric inflammation at 250 mg/kg, po relative to control
# Type: functional
# Design: scale not given: the % may be the effect or the level left
# Conditions: not given
row,Structure (SMILES),Activity [%]
1,CCOC1=C(Sc2nnc(-c3c([C@H]4CC[C@H]5[C@@H]6CC=C7C[C@H](O)CC[C@]7(C)[C@H]6CC[C@]45C)csc3N)n2-c2ccccc2)C(c2ccccc2)C(C#N)=C(N)N1 (stereo partly specified),5.9
2,CCOC(=O)/C(=N/Nc1ccccc1)Sc1nnc(-c2c([C@H]3CC[C@H]4[C@@H]5CC=C6C[C@H](O)CC[C@]6(C)[C@H]5CC[C@]34C)csc2N)n1-c1ccccc1,6.7
3,CC(=O)/C(=N/Nc1ccccc1)Sc1nnc(-c2c([C@H]3CC[C@H]4[C@@H]5CC=C6C[C@H](O)CC[C@]6(C)[C@H]5CC[C@]34C)csc2N)n1-c1ccccc1,6.2

# System: Mus musculus
# Test: Anti-ulcerogenic activity in ethanol-induced gastric ulcer mouse model assessed as reduction in ulcer formation at 250 mg/kg
# Type: functional
# Conditions: not given
row,Structure (SMILES),Activity_index
1,Cc1cc(S(=O)(=O)N2CCN(S(=O)(=O)c3ccccc3)CC2)c2c(C)ccc(C(C)C)cc1-2,1.12
2,COc1ccc(C2C(C#N)=C(O)OC(Nc3nc4c(s3)C[C@H]3[C@@H]5CCC6=CC(=O)CC[C@]6(C)[C@H]5CC[C@]43C)=C2C#N)cc1 (stereo partly specified),2.48
3,C[C@]12CCC(=O)C=C1CC[C@@H]1[C@@H]2CC[C@]2(C)c3nc(NC4=C(C#N)C(c5ccc(Cl)cc5)C(C#N)=C(N)O4)sc3C[C@@H]12 (stereo partly specified),2.48
4,Cc1cc(S(=O)(=O)N2CCN(S(C)(=O)=O)CC2)c2c(C)ccc(C(C)C)cc1-2,1.714
5,CCOC(=O)CN1CCN(S(=O)(=O)c2cc(C)c3cc(C(C)C)ccc(C)c2-3)CC1,1.875

# System: Rattus norvegicus
# Test: Gastric ulcerogenic activity in Wistar rat assessed as reduction in gastric inflammation at 0.02 mg/kg, po relative to control
# Type: functional
# Design: scale not given: the % may be the effect or the level left
# Conditions: not given
row,Structure (SMILES),Activity [%]
1,COc1ccc2[nH]c([S+]([O-])Cc3nc(Cl)c4c(-c5ccc(Cl)cc5)csc4n3)nc2c1 (stereo unspecified),72.6
2,O=C1NC(=O)C(=C(/C=C/c2ccc(Cl)cc2)c2nc3ccccc3[nH]2)C(=O)N1,69.56
3,COc1ccc(/C=C/C(=C2C(=O)NC(=O)NC2=O)c2nc3ccccc3[nH]2)cc1,67.17
4,O=C1NC(=O)C(=C(/C=C/c2ccccc2)c2nc3ccccc3[nH]2)C(=O)N1,63.04
5,CN(C)c1ccc(/C=C/C(=C2C(=O)NC(=O)NC2=O)c2nc3ccccc3[nH]2)cc1,69.56
6,COc1nc(C[S+]([O-])c2nc3ccccc3[nH]2)nc2scc(-c3ccccc3)c12 (stereo unspecified),64.6
7,COc1ccc2[nH]c([S+]([O-])Cc3nc(Cl)c4c(-c5ccccc5)csc4n3)nc2c1 (stereo unspecified),70.2

# Molecular target: T1, Gastrin/cholecystokinin type B receptor (Homo sapiens, UniProt P32239)
# T1 sequence (P32239 whole entry): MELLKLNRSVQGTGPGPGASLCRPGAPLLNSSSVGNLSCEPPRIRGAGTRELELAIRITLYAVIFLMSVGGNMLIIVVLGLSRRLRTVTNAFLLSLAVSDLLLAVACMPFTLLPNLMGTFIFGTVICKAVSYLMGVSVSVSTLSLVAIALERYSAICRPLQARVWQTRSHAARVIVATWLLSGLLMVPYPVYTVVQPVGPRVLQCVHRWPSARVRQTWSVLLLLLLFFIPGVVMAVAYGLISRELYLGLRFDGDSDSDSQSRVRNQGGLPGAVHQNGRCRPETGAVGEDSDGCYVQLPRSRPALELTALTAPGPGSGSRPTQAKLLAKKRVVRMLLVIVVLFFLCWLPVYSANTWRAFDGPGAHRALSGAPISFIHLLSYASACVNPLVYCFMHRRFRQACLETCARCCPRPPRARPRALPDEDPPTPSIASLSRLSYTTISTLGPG
# Test: Antagonist activity at human CCKBR
# Type: functional
# Conditions: not given
row,Structure (SMILES),pIC50
1,COC(=O)[C@H]1Cc2c([nH]c3ccccc23)[C@H](c2ccc(C)cc2)N1,4.19
2,CCCc1ccc([C@@H]2N[C@H](C(=O)OC)CC3c4ccccc4NC32)cc1 (stereo partly specified),3.85

# System: Helicobacter pylori
# Test: Antibacterial activity against Helicobacter pylori ATCC 43504 assessed as reduction in bacterial growth incubated for 24 hrs by broth micro-dilution method
# Type: functional
# Conditions: not given
row,Structure (SMILES),MIC [µg/mL]
1,C=CCSCC=C [DIALLYL SULFIDE],100

# System: Helicobacter pylori
# Test: Antibacterial activity against Helicobacter pylori assessed as reduction in bacterial growth incubated for 24 hrs by broth micro-dilution method
# Type: functional
# Conditions: not given
row,Structure (SMILES),MIC [µg/mL]
1,COc1ccc2c(c1OC)C(=O)O[C@@H]2[C@H]1c2cc3c(cc2CCN1C)OCO3 [HYDRASTINE],25
2,COc1cc2ccc(=O)oc2cc1O[C@@H]1O[C@H](CO)[C@@H](O)[C@H](O)[C@H]1O [SCOPOLIN],50
3,COc1cc2ccc(=O)oc2cc1O [SCOPOLETIN],50
4,COc1ccc2cc3[n+](cc2c1OC)CCc1cc2c(cc1-3)OCO2 [BERBERINE],0.78
5,C=CCSSSSCC=C [DIALLYL TETRASULFIDE],3
